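Cells were grown in 96-well plates and exposed to each compound for 48 hours at five concentrations; endpoints were interpolated linearly between bracketing concentrations, or set to the highest concentration if not reached. GI50: concentration for 50% inhibition of growth.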 Calls of active or inactive are those of the source. No stated cut-off is given here; in the data, active = GI50 up to about 1.1 µM and inactive = higher.
Legend:
Assay in all cases: NCI tumour cell line growth inhibition, 48 h
HCC 2998 = system: HCC 2998
COLO 205 = system: COLO 205
SNB-75 = system: SNB-75
OVCAR-3 = system: OVCAR-3
M14 = system: M14
HCT-15 = system: HCT-15
SF-268 = system: SF-268
HT-29 = system: HT-29
HCT-116 = system: HCT-116
Malme-3M = system: Malme-3M
HOP-92 = system: HOP-92
HOP-62 = system: HOP-62
U-251 = system: U-251
A549 = system: A549
TK-10 = system: TK-10
ACHN = system: ACHN
UACC-62 = system: UACC-62
NCI-H226 = system: NCI-H226

Compound | GI50 (HCC 2998) | GI50 (COLO 205) | GI50 (SNB-75) | GI50 (OVCAR-3) | GI50 (M14) | GI50 (HCT-15) [µM] | GI50 (SF-268) | GI50 (HT-29) | GI50 (HCT-116) | GI50 (Malme-3M) | GI50 (HOP-92) | GI50 (HOP-62) | GI50 (U-251) | GI50 (A549) | GI50 (TK-10) | GI50 (ACHN) | GI50 (UACC-62) | GI50 (NCI-H226)
O=C1C2C(C(=O)N1c1ccccc1)C1([N+](=O)[O-])C=C3c4ccccc4N(C(=O)c4ccccc4)C32C2C(=O)N(c3ccccc3)C(=O)C21 (stereo not drawn) | > 100 µM (inactive) | > 100 µM (inactive) | > 100 µM (inactive) | > 100 µM (inactive) | > 100 µM (inactive) | > 100 | > 100 µM (inactive) | > 100 µM (inactive) | > 100 µM (inactive) | > 100 µM (inactive) | > 100 µM (inactive) | > 100 µM (inactive) | > 100 µM (inactive) | > 100 µM (inactive) | > 100 µM (inactive) | > 100 µM (inactive) | > 100 µM (inactive) | –
CN1C(=O)C(=CN(C)c2ccccc2)C(=O)N(C)C1=O | > 100 µM (inactive) | – | 92.7 µM (inactive) | 90.4 µM (inactive) | 74.5 µM (inactive) | > 100 | – | – | > 100 µM (inactive) | 36.9 µM (inactive) | – | – | > 100 µM (inactive) | > 100 µM (inactive) | > 100 µM (inactive) | > 100 µM (inactive) | 91.6 µM (inactive) | 63.2 µM (inactive)
CC1CCCC(C(O)CC2CC(=O)N(c3ccccc3)C(=O)C2)C1=O (stereo not drawn) | > 100 µM (inactive) | > 100 µM (inactive) | > 100 µM (inactive) | > 100 µM (inactive) | > 100 µM (inactive) | – | > 100 µM (inactive) | > 100 µM (inactive) | > 100 µM (inactive) | > 100 µM (inactive) | > 100 µM (inactive) | > 100 µM (inactive) | > 100 µM (inactive) | > 100 µM (inactive) | > 100 µM (inactive) | > 100 µM (inactive) | > 100 µM (inactive) | > 100 µM (inactive)
CCOc1ccccc1NC(=O)C1=C(C)NC(C)=C(C(=O)Nc2ccccc2OCC)C1c1cccc([N+](=O)[O-])c1 | 36.6 µM (inactive) | > 100 µM (inactive) | 11.6 µM (inactive) | 80.9 µM (inactive) | > 100 µM (inactive) | – | > 100 µM (inactive) | 98.4 µM (inactive) | – | 58.3 µM (inactive) | 4.29 µM (inactive) | 39.3 µM (inactive) | > 100 µM (inactive) | 31.6 µM (inactive) | > 100 µM (inactive) | 29.9 µM (inactive) | – | 80.4 µM (inactive)
CC(=O)CC(=O)N(CCN(C(=O)CC(C)=O)c1ccccc1)c1ccccc1 | > 100 µM (inactive) | > 100 µM (inactive) | 51.8 µM (inactive) | > 100 µM (inactive) | > 100 µM (inactive) | – | > 100 µM (inactive) | – | > 100 µM (inactive) | > 100 µM (inactive) | > 100 µM (inactive) | > 100 µM (inactive) | > 100 µM (inactive) | > 100 µM (inactive) | > 100 µM (inactive) | > 100 µM (inactive) | > 100 µM (inactive) | > 100 µM (inactive)
CC1(O)CC2C(CC1SC1CC3C(CC1(C)O)C3(C)C)C2(C)C (stereo not drawn) | 33.6 µM (inactive) | 35.5 µM (inactive) | 27.9 µM (inactive) | 38.8 µM (inactive) | 48.2 µM (inactive) | 39.1 | > 100 µM (inactive) | 39.6 µM (inactive) | 44.8 µM (inactive) | 29.6 µM (inactive) | 36.2 µM (inactive) | – | 41.6 µM (inactive) | 50.8 µM (inactive) | 69.7 µM (inactive) | 35 µM (inactive) | – | 65.6 µM (inactive)
COc1cc2c(cc1OC)C1c3ccccc3C(C#N)(C2)N(C(=O)c2ccccc2)C1O (stereo not drawn) | > 100 µM (inactive) | 22.8 µM (inactive) | 45.7 µM (inactive) | 52.1 µM (inactive) | 79.1 µM (inactive) | 55.8 | > 100 µM (inactive) | > 100 µM (inactive) | > 100 µM (inactive) | > 100 µM (inactive) | > 100 µM (inactive) | 25.7 µM (inactive) | 56.5 µM (inactive) | – | 93.1 µM (inactive) | 50 µM (inactive) | 43.7 µM (inactive) | 61.1 µM (inactive)
CC(C)N(C(=O)C12C3C4C1C1C2C3C41I)C(C)C (stereo not drawn) | > 100 µM (inactive) | > 100 µM (inactive) | > 100 µM (inactive) | > 100 µM (inactive) | > 100 µM (inactive) | – | > 100 µM (inactive) | > 100 µM (inactive) | > 100 µM (inactive) | > 100 µM (inactive) | 88.9 µM (inactive) | – | – | > 100 µM (inactive) | > 100 µM (inactive) | > 100 µM (inactive) | > 100 µM (inactive) | > 100 µM (inactive)
Fc1cccc(/C=N/C23CC4CC(CC(C4)C2)C3)c1 | > 100 µM (inactive) | > 100 µM (inactive) | > 100 µM (inactive) | > 100 µM (inactive) | > 100 µM (inactive) | > 100 | > 100 µM (inactive) | > 100 µM (inactive) | > 100 µM (inactive) | > 100 µM (inactive) | > 100 µM (inactive) | > 100 µM (inactive) | > 100 µM (inactive) | – | > 100 µM (inactive) | > 100 µM (inactive) | > 100 µM (inactive) | > 100 µM (inactive)
CC1=CCCC2C(C=O)(C1)CC(C)C2(CO)CC/C(=C/CO)CO (stereo not drawn) | > 100 µM (inactive) | > 100 µM (inactive) | 37.8 µM (inactive) | > 100 µM (inactive) | > 100 µM (inactive) | > 100 | – | > 100 µM (inactive) | 69.5 µM (inactive) | > 100 µM (inactive) | 30 µM (inactive) | – | > 100 µM (inactive) | > 100 µM (inactive) | > 100 µM (inactive) | > 100 µM (inactive) | > 100 µM (inactive) | 38.5 µM (inactive)
CCN(c1n[n+]2c(-c3ccccc3)csc2s1)c1n[n+]2c(-c3ccccc3)csc2s1 | > 100 µM (inactive) | 26.4 µM (inactive) | > 100 µM (inactive) | 71.8 µM (inactive) | 92.5 µM (inactive) | > 100 | > 100 µM (inactive) | 66.1 µM (inactive) | 19.3 µM (inactive) | 23.3 µM (inactive) | > 100 µM (inactive) | – | > 100 µM (inactive) | > 100 µM (inactive) | > 100 µM (inactive) | > 100 µM (inactive) | > 100 µM (inactive) | > 100 µM (inactive)
Cc1c(C(=O)/C=C/c2ccccc2)[n+]([O-])c2ccccc2[n+]1[O-] | 16.6 µM (inactive) | 16.3 µM (inactive) | 23.6 µM (inactive) | 15.1 µM (inactive) | 15.3 µM (inactive) | – | 19.7 µM (inactive) | 19.3 µM (inactive) | 15.8 µM (inactive) | 17.7 µM (inactive) | 11.6 µM (inactive) | 18.1 µM (inactive) | 15.3 µM (inactive) | 18.4 µM (inactive) | 26.2 µM (inactive) | 17.7 µM (inactive) | 15.1 µM (inactive) | 20.8 µM (inactive)
